Test system: biochemical pathways with which genes with a change in expression level are associated
Assay: Selection among predicted reactions using differentially expressed genes (DEGs) by dapsone and DAVID pathway annotation
Type: cell-based
Details: reaction included in the "arginine and prolyl metabolism" pathway from DEGs; FIG. 7
Excerpt: Genes that are differentially expressed (differentially expressed genes, DEGs) by dapsone were experimentally determined. Information about biochemical pathways to which the DEGs are involved was obtained by a functional annotation tool of bioinformatics resources (DAVID Bioinformatics Resources version 6.7 operated by the National Institute of Allergy and Infectious Diseases ([…]), Bethesda, Md.; see Huang D W, Sherman B T, Lempicki R A. “Systematic and integrative analysis of large gene lists using DAVID Bioinformatics Resources,” Nature Protoc. 2009; 4(1):44-57; Huang D W, Sherman B T, Lempicki R A. “Bioinformatics enrichment tools: paths toward the comprehensive functional analysis of large gene lists,” Nucleic Acids Res. 2009; 37(1):1-13).
The term “Term” refers to a pathway related to a gene list. The terms “Genes” and “Count” denotes the numbers of genes included in the corresponding terms. The length of the square in the column for “Genes” indicates the number of genes included in the corresponding terms. % refers to a ratio of genes included in the corresponding terms to genes input as DEGs of dapson. These pathways were identified in terms of whether each of the predicted reaction as described in Example 2.1. is included therein.

Nc1ccc(S(=O)(=O)c2ccc(N)cc2)cc1 [dapsone, 4,4′-diaminodiphenylsulfone]
enzyme reaction determined as induced in a cell by treatment: ATP:creatine N-phosphotransferase reaction
